Assay: Solubility of dicamba and its sodium salt

Row | SMILES | amount dissolved in mixtures of a water-miscible glycol and water (glycol 30% or higher by weight of the mixture) | aqueous solubility (fully neutralized (molar equivalence of 1) sodium salt, water)
1 | COc1c(Cl)ccc(Cl)c1C(=O)O [dicamba, 3,6-dichloro-2-methoxybenzoic acid] | about 45 % by weight of the solution | –
2 | COc1c(Cl)ccc(Cl)c1C(=O)[O-].[Na+] [sodium salt of dicamba, sodium dicamba] | – | about 35 wt. % acid equivalent
